Test results taken from patent US11986471B2, “Compounds and methods of use” (Tango Therapeutics, Inc., priority 2018, dated 2024).
pIC50: −log10 of the molar value.

Key:
PRMT5 [1] = target: T1, PRMT5 (Homo sapiens, UniProt O14744); experiment: PRMT5 IC50 assay in the presence of SAM as cofactor; assay type: biochemical
T1 construct: purchased Viva (custom protein)
In short: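 Each compound is tested on PRMT5 in the presence of SAM, of MTA, and without any cofactor. Ki values are then back-calculated using fixed factors of 1.5 (SAM) and 13.5 (MTA), and the two Ki values are compared as a ratio.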

PRMT5 [2] = target: T1, PRMT5; experiment: PRMT5 IC50 assay with no cofactor; assay type: biochemical; settings: read-out: No Co-factor IC50
In short: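 For the SAM-containing format, dividing IC50 by 1.5 yields Ki; for the MTA-containing format the divisor is 13.5. A third format without cofactor gives IC50 alone.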

PRMT5 [3] = target: T1, PRMT5; experiment: PRMT5 IC50 assay in the presence of MTA as cofactor; assay type: biochemical; settings: for pIC50: PRMT5, MTA as cofactor; for SAM/MTA Ratio: ratio between Ki in the presence of SAM and Ki in the presence of MTA
In short: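 MTA-dependent versus SAM-dependent inhibition of human PRMT5 was assessed by IC50; conversion factors of 13.5 and 1.5 gave the corresponding Ki.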

HAP1 MTAP-intact = experiment: SDMA in-cell western assay, HAP1 MTAP-intact cell line; assay type: cell-based; settings: Homo sapiens
In short: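 HAP1 isogenic pair: endogenous MTAP vs MTAP-null. Readout SDMA by in-cell western; IC50 per line. Ratio ≥3 fold = MTAP-selective.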

HAP1 MTAP-deleted = experiment: SDMA in-cell western assay, HAP1 MTAP-deleted cell line; assay type: cell-based; settings: for pIC50: Homo sapiens, HAP1 MTAP-deleted cell line; for MTAP Intact/Deleted Ratio: IC50 ratio HAP1 MTAP-intact / HAP1 MTAP-deleted
In short: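 IC50 from SDMA in-cell western; HAP1 line lacking MTAP (null), paired isogenically with MTAP-intact HAP1 expressing endogenous MTAP.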

T1 sequence (O14744 whole entry): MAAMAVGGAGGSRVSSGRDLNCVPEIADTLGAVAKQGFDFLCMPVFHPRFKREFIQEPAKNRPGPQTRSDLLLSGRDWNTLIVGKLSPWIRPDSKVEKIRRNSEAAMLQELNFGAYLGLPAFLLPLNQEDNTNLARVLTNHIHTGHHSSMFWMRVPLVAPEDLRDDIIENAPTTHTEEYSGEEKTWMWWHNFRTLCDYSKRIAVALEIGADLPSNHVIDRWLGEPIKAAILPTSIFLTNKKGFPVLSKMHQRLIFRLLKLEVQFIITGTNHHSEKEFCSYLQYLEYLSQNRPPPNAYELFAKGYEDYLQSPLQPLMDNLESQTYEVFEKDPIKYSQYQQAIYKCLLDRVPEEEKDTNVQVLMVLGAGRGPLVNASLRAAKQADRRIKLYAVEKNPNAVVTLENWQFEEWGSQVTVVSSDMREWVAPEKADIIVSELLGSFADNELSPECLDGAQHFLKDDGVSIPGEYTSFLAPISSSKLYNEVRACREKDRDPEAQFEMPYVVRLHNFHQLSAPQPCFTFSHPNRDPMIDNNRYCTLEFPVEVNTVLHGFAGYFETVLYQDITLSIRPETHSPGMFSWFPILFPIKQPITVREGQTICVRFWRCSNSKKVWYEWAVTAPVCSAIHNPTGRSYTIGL
T1 sequence (Q9BQA1 whole entry partner): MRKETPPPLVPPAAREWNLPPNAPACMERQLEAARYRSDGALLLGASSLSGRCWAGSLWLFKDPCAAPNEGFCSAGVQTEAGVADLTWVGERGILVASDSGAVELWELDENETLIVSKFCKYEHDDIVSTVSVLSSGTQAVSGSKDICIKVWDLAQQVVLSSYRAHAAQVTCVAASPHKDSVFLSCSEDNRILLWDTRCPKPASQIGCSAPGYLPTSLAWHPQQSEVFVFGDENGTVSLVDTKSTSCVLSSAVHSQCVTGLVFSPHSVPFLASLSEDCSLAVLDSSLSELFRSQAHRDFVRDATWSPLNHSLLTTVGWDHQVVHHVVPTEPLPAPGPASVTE

Compound	pIC50 (PRMT5 [1])	pIC50 (PRMT5 [2])	pIC50 (PRMT5 [3])	pIC50 (HAP1 MTAP-intact)	pIC50 (HAP1 MTAP-deleted)	SAM/MTA Ratio (PRMT5 [3])	MTAP Intact/Deleted Ratio (HAP1 MTAP-deleted)
CC(=O)N1CCC(Nc2cc(C(=O)NC[C@H](O)CN3CCc4c(ccc(OCc5ocnc5C)c4Cl)C3)ncn2)CC1 [Compound 256, (S)-6-((1-acetylpiperidin-4-yl)amino)-N-(3-(5-chloro-6-((4-methyloxazol-5-yl)methoxy)-3N-dihydroisoquinolin-2(1H)-yl)-2-hydroxypropyl)pyrimidine-4-carboxamide]	6.30 to 7.30	≤ 5.30	6.30 to 7.30	≤ 5.00	5.00 to 6.00	A (a Ki ratio greater than or equal to 10 fold between the Ki in the presence of SAM and the Ki in the presence of MTA)	C* (an IC50 ratio of less than 3 fold between the IC50 in the HAP1 MTAP-intact cell line and the HAP1 MTAP-deleted cell line)
CC(=O)N1CCC(Nc2cc(C(=O)NC[C@H](O)CN3CCc4cc(OCc5cnn[nH]5)ccc4C3)ncn2)CC1 [Compound 257, (S)—N-(3-(6-((1H-1,2,3-triazol-5-yl)methoxy)-3,4-dihydroisoquinolin-2(1H)-yl)-2-hydroxypropyl)-6-((1-acetylpiperidin-4-yl)amino)pyrimidine-4-carboxamide]	5.30 to 6.30	≤ 5.30	6.30 to 7.30	≤ 5.00	5.00 to 6.00	A (a Ki ratio greater than or equal to 10 fold between the Ki in the presence of SAM and the Ki in the presence of MTA)	C* (an IC50 ratio of less than 3 fold between the IC50 in the HAP1 MTAP-intact cell line and the HAP1 MTAP-deleted cell line)
Cc1ncoc1COc1ccc2c(c1)CCN(C[C@@H](O)CNC(=O)c1cccc(NC3COC3)c1)C2 [Compound 262, (S)—N-(2-hydroxy-3-(6-((4-methyloxazol-5-yl)methoxy)-3N-dihydroisoquinolin-2(1H)-yl)propyl)-3-(oxetan-3-ylamino)benzamide]	5.30 to 6.30	≤ 5.30	6.30 to 7.30	5.00 to 6.00	5.00 to 6.00	A (a Ki ratio greater than or equal to 10 fold between the Ki in the presence of SAM and the Ki in the presence of MTA)	C* (an IC50 ratio of less than 3 fold between the IC50 in the HAP1 MTAP-intact cell line and the HAP1 MTAP-deleted cell line)
CC(=O)N1CCC(Nc2cc(C(=O)NC[C@H](O)CN3CCc4c(ccc(OCc5conc5C)c4C)C3)ncn2)CC1 [Compound 264, (S)-6-((1-acetylpiperidin-4-yl)amino)-N-(2-hydroxy-3-(5-methyl-6-((3-methylisoxazol-4-yl)methoxy)-3N-dihydroisoquinolin-2(1H)-yl)propyl)pyrimidine-4-carboxamide]	5.30 to 6.30	≤ 5.30	6.30 to 7.30	≤ 5.00	≤ 5.00	A (a Ki ratio greater than or equal to 10 fold between the Ki in the presence of SAM and the Ki in the presence of MTA)	C* (an IC50 ratio of less than 3 fold between the IC50 in the HAP1 MTAP-intact cell line and the HAP1 MTAP-deleted cell line)
Cc1ncoc1COc1cc2c(cc1F)CN(C[C@@H](O)CNC(=O)c1ccnc(NC3CCC3)c1)CC2 [Compound 266, (S)-2-(cyclobutylamino)-N-(3-(7-fluoro-6-((4-methyloxazol-5-yl)methoxy)-3,4-dihydroisoquinolin-2(1H)-yl)-2-hydroxypropyl)isonicotinamide]	6.30 to 7.30	5.30 to 6.30	6.30 to 7.30	5.00 to 6.00	5.00 to 6.00	A (a Ki ratio greater than or equal to 10 fold between the Ki in the presence of SAM and the Ki in the presence of MTA)	B* (an IC50 ratio greater than or equal to 3 fold but lower than 10 fold between the IC50 in the HAP1 MTAP-intact cell line and the HAP1 MTAP-deleted cell line)

More lines, main results first:

pIC50 (PRMT5 [1])	pIC50 (PRMT5 [2])	pIC50 (PRMT5 [3])	pIC50 (HAP1 MTAP-intact)	pIC50 (HAP1 MTAP-deleted)	Compound	SAM/MTA Ratio (PRMT5 [3])	MTAP Intact/Deleted Ratio (HAP1 MTAP-deleted)
5.30 to 6.30	5.30 to 6.30	6.30 to 7.30	5.00 to 6.00	5.00 to 6.00	Cc1c(OCc2cn[nH]c2)ccc2c1CCN(C[C@@H](O)CNC(=O)c1ccnc(NC3CCC3)c1)C2 [Compound 254, 2-(cyclobutylamino)-N-[(2S)-2-hydroxy-3-[5-methyl-6-(1H-pyrazol-4-ylmethoxy)-3,4-dihydro-1H-isoquinolin-2-yl]propyl]pyridine-4-carboxamide]	A (a Ki ratio greater than or equal to 10 fold between the Ki in the presence of SAM and the Ki in the presence of MTA)	C* (an IC50 ratio of less than 3 fold between the IC50 in the HAP1 MTAP-intact cell line and the HAP1 MTAP-deleted cell line)
5.30 to 6.30	≤ 5.30	6.30 to 7.30	≤ 5.00	≤ 5.00	O=C(NC[C@H](O)CN1CCc2c(ccc(OCc3cnco3)c2Br)C1)c1ccnc(NC2CCC2)c1 [Compound 255, N-[(2S)-3-[5-bromo-6-(oxazol-5-ylmethoxy)-3,4-dihydro-1H-isoquinolin-2-yl]-2-hydroxy-propyl]-2-(cyclobutylamino)pyridine-4-carboxamide]	A (a Ki ratio greater than or equal to 10 fold between the Ki in the presence of SAM and the Ki in the presence of MTA)	C* (an IC50 ratio of less than 3 fold between the IC50 in the HAP1 MTAP-intact cell line and the HAP1 MTAP-deleted cell line)
5.30 to 6.30	≤ 5.30	5.30 to 6.30	≤ 5.00	≤ 5.00	O=C(NC[C@H](O)CN1CCc2c(ccc(OCc3cnco3)c2I)C1)c1ccnc(NC2CCC2)c1 [Compound 258, 2-(cyclobutylamino)-N-[(2S)-2-hydroxy-3-[5-iodo-6-(oxazol-5-ylmethoxy)-3,4-dihydro-1H-isoquinolin-2-yl]propyl]pyridine-4-carboxamide]	A (a Ki ratio greater than or equal to 10 fold between the Ki in the presence of SAM and the Ki in the presence of MTA)	C* (an IC50 ratio of less than 3 fold between the IC50 in the HAP1 MTAP-intact cell line and the HAP1 MTAP-deleted cell line)
5.30 to 6.30	≤ 5.30	5.30 to 6.30	> 6.00	> 6.00	O=C(NC[C@H](O)CN1CCc2cc(OCc3cnco3)ccc2C1)c1cccc(NC2CCC2)c1 [Compound 259, (S)-3-(cyclobutylamino)-N-(2-hydroxy-3-(6-(oxazol-5-ylmethoxy)-3,4-dihydroisoquinolin 2(1H)-yl)propyl)benzamide]	A (a Ki ratio greater than or equal to 10 fold between the Ki in the presence of SAM and the Ki in the presence of MTA)	C* (an IC50 ratio of less than 3 fold between the IC50 in the HAP1 MTAP-intact cell line and the HAP1 MTAP-deleted cell line)
5.30 to 6.30	≤ 5.30	5.30 to 6.30	5.00 to 6.00	5.00 to 6.00	Cc1cc(OCc2cnco2)cc2c1CN(C[C@@H](O)CNC(=O)c1ccnc(NC3CCC3)c1)CC2 [Compound 260, 2-(cyclobutylamino)-N-[(2S)-2-hydroxy-3-[8-methyl-6-(oxazol-5-ylmethoxy)-3,4-dihydro-1H-isoquinolin-2-yl]propyl]pyridine-4-carboxamide]	A (a Ki ratio greater than or equal to 10 fold between the Ki in the presence of SAM and the Ki in the presence of MTA)	C* (an IC50 ratio of less than 3 fold between the IC50 in the HAP1 MTAP-intact cell line and the HAP1 MTAP-deleted cell line)
6.30 to 7.30	5.30 to 6.30	6.30 to 7.30	> 6.00	5.00 to 6.00	CC(=O)N1CCC(Nc2cc(C(=O)NC[C@H](O)CN3CCc4c(ccc(OCc5cn[nH]c5)c4Cl)C3)ncn2)CC1 [Compound 261, 6-[(1-acetyl-4-piperidyl)amino]-N-[(2S)-3-[5-chloro-6-(1H-pyrazol-4-ylmethoxy)-3,4-dihydro-1H-isoquinolin-2-yl]-2-hydroxy-propyl]pyrimidine-4-carboxamide]	A (a Ki ratio greater than or equal to 10 fold between the Ki in the presence of SAM and the Ki in the presence of MTA)	C* (an IC50 ratio of less than 3 fold between the IC50 in the HAP1 MTAP-intact cell line and the HAP1 MTAP-deleted cell line)
5.30 to 6.30	≤ 5.30	5.30 to 6.30	≤ 5.00	≤ 5.00	Cc1nocc1COc1ccc2c(c1C)CCN(C[C@@H](O)CNC(=O)c1ccnc(NC3CCC3)c1)C2 [Compound 263, 2-(cyclobutylamino)-N-[(2S)-2-hydroxy-3-[5-methyl-6-[(3-methylisoxazol-4-yl)methoxy]-3,4-dihydro-1H-isoquinolin-2-yl]propyl]pyridine-4-carboxamide]	A (a Ki ratio greater than or equal to 10 fold between the Ki in the presence of SAM and the Ki in the presence of MTA)	C* (an IC50 ratio of less than 3 fold between the IC50 in the HAP1 MTAP-intact cell line and the HAP1 MTAP-deleted cell line)
5.30 to 6.30	≤ 5.30	6.30 to 7.30	≤ 5.00	≤ 5.00	Cc1ncoc1COc1ccc2c(c1Br)CCN(C[C@@H](O)CNC(=O)c1ccnc(NC3CCC3)c1)C2 [Compound 267, N-[(2S)-3-[5-bromo-6-[(4-methyloxazol-5-yl)methoxy]-3,4-dihydro-1H-isoquinolin-2-yl]-2-hydroxy-propyl]-2-(cyclobutylamino)pyridine-4-carboxamide]		C* (an IC50 ratio of less than 3 fold between the IC50 in the HAP1 MTAP-intact cell line and the HAP1 MTAP-deleted cell line)
